Molecules are shown by their SMILES.

From patent US11135228B2, “Cysteinyl-proresolving mediators that promote resolution of infection and organ protection” (THE BRIGHAM AND WOMEN'S HOSPITAL, priority 2014, dated 2021) come the findings set out here.

The subject of test [1] is Human macrophages. Briefly: Human macrophage phagocytosis of fluorescently labeled E. coli. As to conditions: 17-series sulfido-conjugates 0.1-10 nM, 15 min; bacteria 40 min. Type of test: cell-based. The method, then:
(§1) Leukocyte phagocytosis: Macrophages were prepared from peripheral blood mononuclear cells (PBMC) purchased from Children's Hospital Blood Bank, Boston, and phagocytosis was assessed as in (11). Briefly, macrophages (5×10^4 cells,/well) were incubated with SCI (10 pM-100 nM), SCII (10 pM-100 nM), MaR1 (10 pM-100 nM), or vehicle (0.1% EtOH in DPBS) for 15 min at 37° C., then fluorescent labeled apoptotic cells were added and cells incubated 45 min at 37° C. Extracellular fluorescence was quenched using Trypan blue (1:15 dilution) and phagocytosis assessed using an M3 SpectraMax plate reader. In select experiments, macrophages (5×10^4 cells/well) or neutrophils (1×10^5 cells/well) were obtained from human healthy volunteers' peripheral blood as in (11) in accordance with Partners Human Research Committee Protocol (#1999P001297), and incubated with H2DCFDA (5 μM, 30 min, 37° C.), then with SCI (10 pM-100 nM), SCI (10 pM-100 nM) or vehicle (0.1% EtOH in DPBS, 15 min, 37° C.) and E. coli (1:50 leukocytes to E. coli, 45 min, 37° C.) Intracellular reactive oxygen species were determined by measuring fluorescence using an M3 SpectraMax plate reader. To assess bacterial phagocytosis, macrophages (5×10^4 cells/well) or neutrophils (1×10^5 cells/well) were incubated with SCI (10 pM-100 nM), SCII (10 pM-100 nM) or vehicle (0.1% EtOH in DPBS, 15 min, 37° C.), then incubated with BacLight Green (Molecular Probes) labeled E. coli (1:50 leukocytes to E. coli, 45 min, 37° C.), Extracellular fluorescence was quenched using Trypan blue (1:15 dilution), and phagocytosis assessed using an M3 SpectraMax plate reader.
Macrophage phagocytosis was assessed using fluorescently labeled E. coli (serotype O6:K2;H1) with BacLight Green Bacterial Stain (Life Technologies, Eugene, Oreg., USA). E. coli [2.5×10^6 colony-forming units (CFL)/well] were then added to macrophages previously plated in 96-well plates (40 min at 37° C.) and incubated with 0.1-10 nM concentration of test compounds [15 min at 37° C. (pH 7.45)]. Fluorescence was measured on a SpectraMax M3 plate reader, and results were analyzed using SoftMax Pro.

In test [2] the test system is Human macrophages. Briefly: Human macrophage efferocytosis of apoptotic PMN. As to conditions: 17-series sulfido-conjugates 0.1-10 nM; apoptotic PMNs 40 min. Type of test: cell-based. The procedure: as §1
In determined experiments, human macrophages were incubated with SC isolates from regenerating planaria for 15 min at 37° C., then fluorescent labeled apoptotic cells were added and efferocytosis was assessed as detailed above.
Macrophage bacterial phagocytosis, efferocytosis, and phagolysosontal acidification: Human macrophages were plated in 96-well plates (5×10^4 cells per well) for 24 h, and phagocytosis or efferocytosis was assessed as in (14). In brief, apoptotic PMNs were obtained by culturing cells overnight in PBS^−/− (5×10^6 cells/ml). Apoptotic human PMNs were labeled with bisbenzimide H33342 trihydrochloride (Sigma-Aldrich). Human macrophages were incubated with 0.1-10 nM concentration of test products, and then labeled apoptotic PMNs were cocultured with macrophages for 40 min [37° C. […]]. Fluorescence was read on a SpectraMax M3 plate reader (Molecular Devices, Sunnyvale, Calif., USA), and results were analyzed using SoftMax Pro (Molecular Devices).

The subject of test [3] is Human macrophages. Put plainly: Macrophage phagolysosomal acidification (pHrodo dye). The format is cell-based. As to conditions: in the presence of bacteria, 60 min. The procedure: Macrophage phagolysosomal acidification was assessed by incubating macrophages with pHrodo dye (Invitrogen) following the manufacturer's instructions. Subsequently, cells were incubated with 1 nM of test compounds (15 min at 37° C.), E. coli (2.5×10^6 CFU/well) were added, and fluorescence was assessed after 60 min (37° C.) using a BZ9000 microscope equipped with a ×20 objective (Keyence, Itasca, Ill., USA) and a fluorescence plate reader.

The test system of test [4] is Mice (hind-limb ischemia/reperfusion). Put plainly: Hind-limb ischemia reperfusion, second organ reflow injury. Type of test: in vivo, mouse. The note with it: SCI plus SCII 50 ng each or RvD1 500 ng i.v. The procedure:
Ischemia Reperfusion: Mice were anesthetized by intraperitoneal (i.p.) injection of […]. To initiate hind-limb ischemia, tourniquets consisting of a rubber band were placed on each hind limb. Ten min prior to the initiation of reperfusion, Vehicle (saline containing 0.1% EtOH), SCI (50 ng) plus SCII (50 ng) or Resolvin D1 (500 ng) were administered by intravenous injection. At the end of reperfusion (3 h), mice were euthanized, blood collected via cardiac puncture and plasma isolated for lipid mediator metabololipidomics. Lungs were harvested, left lungs were frozen in liquid nitrogen and stored at −80° C. Right lungs were stored in 10% (v/v) buffered formalin and processed for histology and hematoxylin and eosin (H&E) staining by the Children's Hospital Boston Core Histology Facility, imaged using a Keyence BZ-9000 microscope and BZ II imaging software (Keyence) Expression of Ki67 and Roof plate-specific Spondin-3 (RSPO3) were assessed by immunofluorescence staining. Briefly, sections were deparafinized in xylene and rehydrated, then blocked in 10% horse serum and stained with either rat anti-mouse RSPON3 antibody (R&D Systems) for 1 h at room temperature and then with sheep anti-rat Alexa-594 conjugated antibody (BioLegend), or with rabbit anti-mouse antibody (Abeam) and then with donkey anti-rabbit Alexa-488 antibody (BioLegend). Slides were mounted in Vector Shield mounting solution with DAPI (Vector Labs) and immunofluorescence assessed using a Zeiss LSM 510 Meta confocal microscope. Images were processed using ImageJ software (National Institutes of Health) and Adobe Photoshop CS6 (Adobe Systems incorporated) software. Frozen lungs were gently dispersed, centrifuged, and tissue myeloperoxidase (MPO) levels were determined using mouse MPO ELISA (R&D Systems).

For `CC/C=C\CC(O)C(/C=C/C=C/C=C\C/C=C\C/C=C\CCC(=O)O)SCC(NC(=O)CCC(N)C(=O)O)C(=O)NCC(=O)O` (centres unmarked) [PCTR1, 16-glutathionyl, 17-hydroxy-4Z,7Z,10,12,14,19Z-docosahexaenoic acid], in test [1], the “human macrophage phagocytosis of E. coli” value is on record as “dose-dependent increase”. The “human macrophage efferocytosis (uptake of apoptotic human PMNs)” value (“human macrophage efferocytosis” below) in test [2] is given as “dose-dependent increase”. Further, in test [3], the macrophage phagolysosomal acidification entry is on record as “dose-dependent increase”.

Consider `CC/C=C\C[C@H](O)[C@@H](/C=C/C=C/C=C\C/C=C\C/C=C\CCC(=O)O)SC[C@H](N)C(=O)NCC(=O)O` [PCTR2, 16-cysteinylglycinyl, 17-hydroxy-4Z,7Z,10,12,14,19Z-docosahexaenoic acid], for which, in test [1], the “human macrophage phagocytosis of E. coli” value was “dose-dependent increase”. Further, in test [2], the “human macrophage efferocytosis” value is reported as “dose-dependent increase”. Further, the macrophage phagolysosomal acidification entry in test [3] is “dose-dependent increase”.

As for `CC/C=C\C[C@H](O)[C@@H](/C=C/C=C/C=C\C/C=C\C/C=C\CCC(=O)O)SC[C@H](N)C(=O)O` [PCTR3, 16-cysteinyl, 17-hydroxy-4Z,7Z,10,12,14,19Z-docosahexaenoic acid], the “human macrophage phagocytosis of E. coli” value in test [1] is given as “dose-dependent increase”. In addition, the “human macrophage efferocytosis” value in test [2] is “dose-dependent increase”. In addition, the macrophage phagolysosomal acidification result in test [3] is “dose-dependent increase”.

For `CC/C=C\C[C@H](O)\C=C/C=C/C=C/[C@H](O)C/C=C\C/C=C\CCC(=O)O` [PD1, 10R,17S-dihydroxy-docosa-4Z,7Z,11E,13E,15Z,19Z-hexaenoic acid, reference compound], the “human macrophage phagocytosis of E. coli” value in test [1] is “comparable”.

For the compound `CC/C=C\C[C@H](O)/C=C/C=C\C=C\C=C\[C@@H](SC[C@H](NC(=O)CC[C@H](N)C(=O)O)C(=O)NCC(=O)O)[C@@H](O)C/C=C\CCC(=O)O` [RCTR1, 8-glutathionyl, 7,17-hydroxy-4Z,9,11,13Z,15E,19Z-docosahexaenoic acid], the “human macrophage phagocytosis of E. coli” value in test [1] is “dose-dependent increase”. The “human macrophage efferocytosis” value in test [2] was “dose-dependent increase”. In addition, in test [3], the macrophage phagolysosomal acidification result is on record as “dose-dependent increase”.

With `CC/C=C\C[C@H](O)/C=C/C=C\C=C\C=C\[C@@H](SC[C@H](N)C(=O)NCC(=O)O)[C@@H](O)C/C=C\CCC(=O)O` [RCTR2, 8-cysteinylglycinyl, 7,17-hydroxy-4Z,9,11,13Z,15E,19Z-docosahexaenoic acid], in test [1], the “human macrophage phagocytosis of E. coli” value is “dose-dependent increase”. Besides, the “human macrophage efferocytosis” value in test [2] is given as “dose-dependent increase”. In addition, the macrophage phagolysosomal acidification entry in test [3] is recorded as “dose-dependent increase”.

Regarding `CC/C=C\C[C@H](O)/C=C/C=C\C=C\C=C\[C@@H](O)[C@@H](O)C/C=C\CCC(=O)O` [RvD1, 7S,8R,17S-trihydroxy-docosa-4Z,9E,11E,13Z,15E,19Z-hexaenoic acid, reference compound], in test [4], the “leukocyte infiltration/migration into lungs and spleens (MPO)” value is recorded as “comparable”.
